{"source": "paper PMC3688528", "about": "“Location of the CD8 T Cell Epitope within the Antigenic Precursor Determines Immunogenicity and Protection against the Toxoplasma gondii Parasite” (PLoS Pathogens, 2013)", "key": {"[1]": {"tested_on": "T. gondii-specific CD8 T cells of infected B10.D2 mice", "assay": "Ex vivo staining of peptide-specific CD8 T cells with peptide-loaded L^d DimerX", "type": "cell-based, mouse", "conditions": "B10.D2 mice 4 weeks post-infection; HF10 value in CEP+GRA6II-infected mice; mean +/- s.d.; 3 independent experiments pooled; SD", "description": "(§1) Mice were sacrificed 3 to 4 weeks after infection. Spleens were dissociated into single-cell suspensions in complete RPMI (Invitrogen) supplemented with 10% (vol/vol) FCS (Hyclone). Samples were depleted of erythrocytes with ACK lysis buffer (100 µM EDTA, 160 mM NH4Cl and 10 mM NaHCO3). Leukocytes from the brain were prepared as in [17]. In brief, brains were minced and digested for 1 h at 37°C with 1 mg/ml collagenase (Sigma) and 100 µg/ml DNAseI (Roche) in complete RPMI. Brain suspensions were filtered through 70-µm cell strainers and centrifuged for 10 min at 200 g. Cells were resuspended in 60% (vol/vol) Percoll (GE Healthcare), overlaid on 30% (vol/vol) Percoll and centrifuged 20 min at 1,000 g. Infiltrating mononuclear cells were collected from the gradient interface and the remaining erythrocytes were lyzed with ACK lysis buffer.\n(§2) For other stainings, surfaces were labeled according to standard procedures with flow cytometry buffer (3% (vol/vol) FCS and 1 mM EDTA in PBS). Intracellular IFN-γ was detected with the Cytofix/Cytoperm kit (BD Pharmingen). DimerX H-2L^d:Ig (fusion protein of H-2L^d and immunoglobulin; BD Biosciences) was used according to the manufacturer's instructions and as described in [17]. All flow cytometry data were acquired on an XL Analyzer (Coulter) or a LSRII (Becton Dickinson) and were analyzed with FlowJo software (Tree Star)."}, "type II parasite": {"tested_on": "type II parasite", "conditions": "H2^d mice immunized with HF10-loaded bone marrow-derived dendritic cells; cited from earlier work"}, "[2]": {"tested_on": "naïve T. gondii-specific CD8α+ T cells in naive B10.D2 mice", "assay": "Naïve T cell enumeration by tetramer-based enrichment and flow cytometry", "design": "species or system mouse", "description": "We next assessed whether abundance of peptide-specific T cells in the repertoire of naïve mice may control immunodominance. We employed a tetramer-based enrichment procedure, [24] to enumerate naïve T cells isolated from spleen and lymph nodes of uninfected mice and specific for each of the 3 epitopes. Numbers of T cell precursors were analyzed by flow cytometry after gating on a population of live dump^− (dump = B220, F4/80, MHC II) CD3^+ CD8α^+ cells (Fig. S4 in Text S1). […] Thus the immunodominance of HF10 cannot be explained by a high starting precursor frequency of specific T cells.\nSpleen and major lymph nodes from individual naïve B10.D2 mice were harvested. Single cell suspension was stained with PE-labeled (Prozyme) SM9:L^d, IF9:L^d or HF10:L^d tetramers (NIH tetramer facility). Tetramer enrichment was performed on each sample with anti-PE magnetic beads (Miltenyi Biotec) and each sample was stained with antibodies (BD Biosciences) for flow cytometry analysis. Total numbers of CD8α^+tetramer^+ T cells per mouse were determined as before, [24]."}, "L^d MHC I molecule": {"biological_target": "T1, L^d MHC I molecule (Mus musculus, UniProt P01897)", "T1 construct": "expressed in transfected cells; host or cells: RMA-S.L^d cells (TAP-deficient), gift from T. Hansen", "T1 sequence (P01897 25-362)": "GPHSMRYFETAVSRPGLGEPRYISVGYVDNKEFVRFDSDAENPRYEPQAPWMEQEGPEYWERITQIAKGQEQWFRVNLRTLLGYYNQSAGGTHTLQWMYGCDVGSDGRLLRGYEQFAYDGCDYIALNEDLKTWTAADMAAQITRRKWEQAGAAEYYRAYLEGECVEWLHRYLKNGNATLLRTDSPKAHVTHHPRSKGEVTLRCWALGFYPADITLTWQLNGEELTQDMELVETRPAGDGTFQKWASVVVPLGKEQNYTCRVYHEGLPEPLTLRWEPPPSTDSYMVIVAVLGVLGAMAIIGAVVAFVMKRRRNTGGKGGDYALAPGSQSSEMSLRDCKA", "T1 sequence (P01887 21-119 partner)": "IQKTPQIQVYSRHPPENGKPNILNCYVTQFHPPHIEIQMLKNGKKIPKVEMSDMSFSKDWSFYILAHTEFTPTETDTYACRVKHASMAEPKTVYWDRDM", "assay": "MHC I stabilization assay on TAP-deficient RMA-S.L^d cells", "type": "binding", "conditions": "flow cytometry MFI", "description": "We took advantage of the genetic diversity among three common T. gondii strains (type I, II and III). While the GRA4-derived SM9 and ROP7-derived IF9 peptides are conserved (data not shown and ToxoDB.org), the GRA6-derived HF10 peptide is polymorphic between type II and type I/III strains. Within the last 10 residues of GRA6, four non-synonymous single-nucleotide polymorphisms differentiate the type II sequence (HF10: HPGSVNEFDF) from the type I/III sequence (HY10: HPERVNVFDY) (Fig. 1A and Fig. S1 in Text S1). We noted that instead of a phenylalanine (F), the C-terminal residue in GRA6III is a tyrosine (Y), a residue not expected to be an appropriate anchor residue for L^d binding. To evaluate the ability of HF10 and HY10 to bind to L^d, we used an MHC I stabilization assay. TAP-deficient RMA-S cells display empty, unstable MHC I molecules and addition of exogenous peptides that can bind to MHC I can stabilize their expression on the cell surface, as read out by flow cytometry.\nRMA-S.L^d cells were a gift from T. Hansen (St-Louis, MO, USA). RMA-S.L^d cells were incubated at 37°C, 5% CO2 for 8 h to saturate the culture medium with CO2. The flask was sealed with parafilm and incubated at RT overnight. The next day, cells were washed with PBS and plated at 3×10^5 cells/well in a 96-W plate. Peptide was added to the cells in serial dilutions. The plate was incubated for 1 h at RT and 3 h at 37°C. Cells were stained with the 30-5-7 antibody (specific for conformed, peptide-bound L^d) and a phycoerythrine (PE)-coupled goat anti-mouse secondary antibody and analyzed by flow cytometry."}, "[3]": {"tested_on": "CD8 T cells from spleens of T. gondii-infected B10.D2 mice", "assay": "Ex vivo IFN-γ intracellular staining of splenocytes restimulated in vitro with peptide", "type": "cell-based", "conditions": "splenocytes of B10.D2 mice 3 weeks post-infection with CEP+GRA6II; one representative mouse out of 3", "description": "as §1, §2"}, "[4]": {"conditions": "uninfected B10.D2 mice, tetramer enrichment"}, "[5]": {"conditions": "MHC I stabilization on RMA-S.L^d cells, representative of 3 assays"}}, "note": "“And” between values parts separate entries of the source, which are not always exact repeats. Identical values can stand only once.", "data": [{"sequence": "HPGSVNEFDF [HF10, decamer peptide derived from type II GRA6 C-terminus, presented by L^d MHC I]", "values": [{"measurement": "Frequency of peptide-specific CD8 T cells in the spleen (peptide-loaded L^d dimers)", "setting": "[1]", "result": 9.5, "unit": "%+/−3.7"}, {"measurement": "Protection against lethal parasite challenge (in words)", "setting": "type II parasite", "result": "protects against lethal type II parasite challenge"}, {"measurement": "Number of tetramer+ cells / mouse (naïve peptide-specific CD8α+ T cells)", "setting": "[2]; spleen and lymph nodes of uninfected B10.D2 mice, peptide:L^d tetramer enrichment, mean, pooled from 3 independent experiments", "result": 400, "unit": "cells / mouse"}, {"measurement": "Frequency of naïve HF10-specific CD8 T cells, fold lower than IF9-specific", "setting": "[2]; [4]", "result": "~3", "unit": "fold"}, {"measurement": "Frequency of naïve HF10-specific CD8 T cells, fold lower than SM9-specific", "setting": "[2]; [4]", "result": "around 10 fold"}, {"measurement": "Affinity for L^d relative to SM9 (in words)", "setting": "L^d MHC I molecule; [5]", "result": "fell in the same range as the T. gondii subdominant peptide SM9"}, {"measurement": "Affinity for L^d, fold higher than that of IF9, QL9 and YL9", "setting": "L^d MHC I molecule; [5]", "result": "~10", "unit": "fold"}, {"measurement": "Peptide concentration stabilizing L^d surface expression, fold lower compared to HY10", "setting": "L^d MHC I molecule; RMA-S.L^d cells pulsed with serial peptide dilutions, 1 h RT and 3 h 37°C, 30-5-7 antibody, representative of 2 assays", "result": 1000, "unit": "fold"}, {"measurement": "Percentage of IFN-γ+ out of CD8+ cells after peptide restimulation", "setting": "[3]", "result": "24.7% and ~25%"}]}]}
